# According to PMC12655172, “Borylated 5-Membered Ring Iminosugars: Synthesis and Biological Evaluation for Glycosidase Inhibition and Anticancer Properties for Application in Boron Neutron Capture Therapy (BNCT)—Part 2” (Pharmaceuticals, 2025):
# Key:
# [1] = test system: T1, trehalase (porcine kidney); test: Glycosidase inhibition (Table 2 panel); format: biochemical; details: at 100 μM
# T1 construct: purchased Sigma-Aldrich; host or cells: porcine kidney
# Description: (§1) The enzymes α-D-glucosidase (yeast), β-D-glucosidases (almond, bovine liver), α-D-galactosidase (coffee beans), β-D-galactosidase (bovine liver), α-D-mannosidase (Jack bean), β-D-mannosidase (snail), α-L-rhamnosidase (P. decumbens), α-L-fucosidase (bovine kidney), trehalase (porcine kidney), β-D-glucuronidases (E. coli, bovine liver), amyloglucosidase (A. niger), para-nitrophenyl glycosides, and various disaccharides were purchased from Sigma-Aldrich Co (St. Louis, MO, USA).
# (§2) Brush border membranes were prepared from the rat small intestine according to the method of Kessler et al., and were assayed at pH 6.8 for rat intestinal maltase using maltose. For rat intestinal maltase, porcine kidney trehalase, and A. niger amyloglucosidase activities, the reaction mixture contained maltose ([…]) and the appropriate amount of enzyme, and the incubations were performed for 10–30 min at 37 °C. The reaction was stopped by heating at 100 °C for 3 min. After centrifugation (600 g; 10 min), the resulting reaction mixture was added to the Glucose CII-test Wako (Wako Pure Chemical Ind., Osaka, Japan). The absorbance at 505 nm was measured to determine the amount of the released D-glucose. Other glycosidase activities were determined using an appropriate para-nitrophenyl glycoside as substrate at the optimum pH of each enzyme. The reaction mixture contained the substrate ([…]) and the appropriate amount of enzyme. The reaction was stopped by the addition of Na2CO3 ([…]). The released para-nitrophenol was measured spectrometrically at 400 nm. All reactions were run in […].
# [2] = test system: T2, α-D-galactosidase (coffee beans); test: Glycosidase inhibition (Table 2 panel); format: biochemical; details: at 100 μM
# T2 construct: purchased Sigma-Aldrich; host or cells: coffee beans
# Description: as §1, §2
# [3] = test system: α-D-glucosidase (rat intestinal maltase); test: Glycosidase inhibition (Table 2 panel); format: biochemical; details: at 100 μM
# Description: as §1, §2
# [4] = test system: T3, α-D-mannosidase (Jack bean); test: Glycosidase inhibition (Table 2 panel); format: biochemical; details: at 100 μM
# T3 construct: purchased Sigma-Aldrich; host or cells: Jack bean
# Description: as §1, §2
# [5] = test system: α-L-rhamnosidase (P. decumbens); test: Glycosidase inhibition (Table 2 panel); format: biochemical; details: at 100 μM
# Description: as §1, §2
# β-D-glucosidase (almond) = test: Glycosidase inhibition (Table 2 panel); format: biochemical; details: at 100 μM
# Description: as §1, §2
# [6] = target: T4, β-D-glucosidase (bovine liver) (Bos taurus, UniProt F1MNT6); test: Glycosidase inhibition (Table 2 panel); format: biochemical; details: at 100 μM
# T4 sequence (F1MNT6 1-469): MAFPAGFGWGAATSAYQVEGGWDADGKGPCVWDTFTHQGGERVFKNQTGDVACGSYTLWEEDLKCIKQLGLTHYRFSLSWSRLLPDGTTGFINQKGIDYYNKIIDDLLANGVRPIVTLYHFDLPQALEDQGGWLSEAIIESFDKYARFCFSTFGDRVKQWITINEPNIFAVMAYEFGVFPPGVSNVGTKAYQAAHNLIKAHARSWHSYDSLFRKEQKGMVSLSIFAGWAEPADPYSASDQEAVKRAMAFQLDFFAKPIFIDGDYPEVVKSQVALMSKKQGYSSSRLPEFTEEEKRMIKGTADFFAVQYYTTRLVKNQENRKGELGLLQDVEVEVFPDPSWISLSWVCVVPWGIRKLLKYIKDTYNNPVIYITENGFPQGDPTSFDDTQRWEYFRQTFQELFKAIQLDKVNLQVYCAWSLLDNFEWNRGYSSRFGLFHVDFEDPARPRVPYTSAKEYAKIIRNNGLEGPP
# Description: as §1, §2
# [7] = test system: β-D-glucuronidase (bovine liver); test: Glycosidase inhibition (Table 2 panel); format: biochemical; details: at 100 μM
# Description: as §1, §2
# β-D-mannosidase (snail) = test: Glycosidase inhibition (Table 2 panel); format: biochemical; details: at 100 μM
# Description: as §1, §2
# [8] = test system: A2780 (ovarian carcinoma); test: Cancer screening, MTT growth inhibition; format: cell-based; details: 72 h
# Procedure: (§3) For Table 4, all test agents were prepared as stock solutions ([…]) in dimethyl sulfoxide (DMSO) and stored at −20 °C. Cell lines used in the study included HT29 (colorectal carcinoma), A2780 (ovarian carcinoma), H460 (lung carcinoma), A431 (skin carcinoma), MiaPaCa-2 (pancreatic carcinoma), and SMA560 (spontaneous murine astrocytoma), together with MCF10A (non-tumour derived normal breast cell line). Cell line sources: the HT29, H460, and MiaPaCa-2, together with MCF10A were purchased from ATCC. The A2780 and A431 were purchased from the European Collection of Cell Culture (ECACC). All cell lines were incubated in a humidified atmosphere 5% CO2 at 37 °C. The cancer cell lines were maintained in Dulbecco’s modified Eagle’s medium (DMEM; Sigma, Truganina, Australia) supplemented with foetal bovine serum (10%), sodium pyruvate ([…]), penicillin (100 IUmL^−1), streptomycin (100 µg mL^−1), and L-glutamine ([…]).
# (§4) Growth inhibition was determined by plating cells in duplicate in medium (100 µL) at a density of 2500–4000 cells per well in 96-well plates. On day 0 (24 h after plating), when the cells are in logarithmic growth, medium (100 µL) with or without the test agent was added to each well. […] Each data point is the mean ± the standard error of the mean (SEM) calculated from three replicates which were performed on separate occasions and separate cell line passages.
# A431 (skin carcinoma) = test: Cancer screening, MTT growth inhibition; format: cell-based; details: 72 h
# Procedure: as §3, §4
# H460 (lung carcinoma) = test: Cancer screening, MTT growth inhibition; format: cell-based; details: 72 h
# Procedure: as §3, §4
# [9] = test system: HT29 (colorectal carcinoma); test: Cancer screening, MTT growth inhibition; format: cell-based; details: 72 h
# Procedure: as §3, §4
# [10] = test system: MIA-Pa-Ca2 (pancreatic carcinoma); test: Cancer screening, MTT growth inhibition; format: cell-based; details: 72 h
# Procedure: as §3, §4
# α-D-glucosidase (rice) = α-D-glucosidase (rice) (Oryza sativa subsp. japonica, UniProt Q653V7); test: Glycosidase inhibition (Table 2 panel); format: biochemical; details: at 100 μM
# Chain of α-D-glucosidase (rice) (Q653V7 34-885): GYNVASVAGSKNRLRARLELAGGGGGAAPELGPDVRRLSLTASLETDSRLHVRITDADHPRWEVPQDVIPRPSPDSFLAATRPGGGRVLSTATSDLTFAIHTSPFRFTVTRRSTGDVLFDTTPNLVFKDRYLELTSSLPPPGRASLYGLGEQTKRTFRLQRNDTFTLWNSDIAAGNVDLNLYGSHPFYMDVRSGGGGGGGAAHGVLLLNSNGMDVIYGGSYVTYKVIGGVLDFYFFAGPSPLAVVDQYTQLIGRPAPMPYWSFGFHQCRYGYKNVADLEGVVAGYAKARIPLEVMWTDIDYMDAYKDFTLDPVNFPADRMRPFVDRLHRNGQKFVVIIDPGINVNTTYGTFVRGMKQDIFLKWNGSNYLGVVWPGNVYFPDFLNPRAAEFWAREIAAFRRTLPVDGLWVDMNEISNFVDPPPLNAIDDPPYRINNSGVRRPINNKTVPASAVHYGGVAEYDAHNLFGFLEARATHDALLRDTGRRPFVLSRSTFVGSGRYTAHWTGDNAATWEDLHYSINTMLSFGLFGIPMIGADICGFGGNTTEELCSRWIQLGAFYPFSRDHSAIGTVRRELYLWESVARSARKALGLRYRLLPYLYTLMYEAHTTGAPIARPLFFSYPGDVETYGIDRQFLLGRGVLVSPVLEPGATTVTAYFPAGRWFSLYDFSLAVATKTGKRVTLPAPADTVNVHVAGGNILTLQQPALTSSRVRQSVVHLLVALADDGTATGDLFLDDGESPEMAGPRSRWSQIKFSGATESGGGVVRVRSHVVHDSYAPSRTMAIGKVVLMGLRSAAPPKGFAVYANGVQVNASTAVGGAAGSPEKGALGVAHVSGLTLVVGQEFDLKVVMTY
# Description: as §1, §2
SMILES,inhibition % Trehalase Porcine Kidney [1],inhibition % α-D-Galactosidase Coffee Beans [2],inhibition % α-D-Glucosidase Rat Intestinal Maltase [3],inhibition % α-D-Mannosidase Jack Bean [4],inhibition % α-L-Rhamnosidase P. decumbens [5],inhibition % β-D-Glucosidase Almond (β-D-glucosidase (almond)),inhibition % β-D-Glucuronidase Bovine Liver [7],inhibition % β-D-Mannosidase Snail (β-D-mannosidase (snail)),also measured
"N[C@@H](Cc1ccc(B(O)O)cc1)C(=O)O [BPA, 4-borono-L-phenylalanine, reference compound]",^cNI ^d(0%),^cNI ^d(4.3%),^cNI ^d(0%),^cNI ^d(1.1%),^cNI ^d(0%),^cNI ^d(0%),^cNI ^d(7.4%),^cNI ^d(2.1%),"inhibition at 100 µM [6]: 0%; inhibition at 25 µM ([8]; Homo sapiens, A2780, 25 µM of drug, read-out: DOSE SCREEN percentage (%) cell growth inhibition A2780 Ovarian): 4%; inhibition at 25 µM (A431 (skin carcinoma); Homo sapiens, A-431, 25 µM of drug, read-out: DOSE SCREEN percentage (%) cell growth inhibition A431 Skin): 4%; inhibition at 25 µM (H460 (lung carcinoma); Homo sapiens, NCI-H460, 25 µM of drug, read-out: DOSE SCREEN percentage (%) cell growth inhibition H460 Lung): 7%; inhibition at 25 µM ([9]; Homo sapiens, HT-29, 25 µM of drug, read-out: DOSE SCREEN percentage (%) cell growth inhibition HT29 Colon): 14%; inhibition at 25 µM ([10]; Homo sapiens, MIA PaCa-2, 25 µM of drug, read-out: DOSE SCREEN percentage (%) cell growth inhibition MIA-Pa-Ca2 Pancreatic): 3%"
"N[C@@H](Cc1ccc(B(O)O)cc1)C(=O)O [^10B-BPA, reference compound]",^cNI ^d(0%),^cNI ^d(1.2%),^cNI ^d(0%),^cNI ^d(0%),^cNI ^d(0%),^cNI ^d(0%),^cNI ^d(0%),^cNI ^d(0.3%),inhibition % α-D-Glucosidase Rice (α-D-glucosidase (rice)): ^cNI ^d(0%); inhibition % β-D-Glucosidase Bovine Liver [6]: ^cNI ^d(14.2%); DOSE SCREEN percentage (%) cell growth inhibition A2780 Ovarian ([8]; 25 µM of drug): * 8 ± 4%; DOSE SCREEN percentage (%) cell growth inhibition A431 Skin (A431 (skin carcinoma); 25 µM of drug): * 4 ± 4%; DOSE SCREEN percentage (%) cell growth inhibition H460 Lung (H460 (lung carcinoma); 25 µM of drug): * 8 ± 5%; DOSE SCREEN percentage (%) cell growth inhibition HT29 Colon ([9]; 25 µM of drug): * 15 ± 4%; DOSE SCREEN percentage (%) cell growth inhibition MIA-Pa-Ca2 Pancreatic ([10]; 25 µM of drug): * 11 ± 3%
